Laboratory results from patent publication US20070004653A1, “Stable lyophilized anthracycline glycosides” (priority 2005, published 2007).

Test: Stability tests of Idarubicin HCl, 1% w/v aqueous solution, pH varied with NH4OH or HCl or dissolved as is (aglycone, bis-anhydro)
Format: physicochemical
Conditions: for % aglycone / % bis-anhydro: 1% w/v aqueous solution
Description: Starting product was idarubicin hydrochloride, 1% w/v aqueous solution, the analysis of which is shown in the data reported at t=0. 3% mol of NH4OH with respect to idarubicin hydrochloride was added to the solution at t=0 and the solution was incubated at 20° C. for the indicated time. The results in table 1 show the expected rise over time of the bis-anhydro degradation product at high pH (6.69), with very little increase of aglycone.
Starting product was idarubicin hydrochloride, 1% w/v aqueous solution, the analysis of which is shown in the data reported at t=0. 1% mol of NH4OH with respect to idarubicin hydrochloride was added to the solution at t=0 and the solution was incubated at 20° C. for the indicated time.
Starting product was idarubicin hydrochloride, 1% w/v aqueous solution, the analysis of which is shown in the data reported at t=0. 3% mol of NH4OH with respect to idarubicin hydrochloride was added to the solution at t=0 and the solution was incubated at 4° C. for the indicated time.
Starting product was idarubicin hydrochloride, 1% w/v aqueous solution, the analysis of which is shown in the data reported at t=0.1% mol of NH4OH with respect to idarubicin hydrochloride was added to the solution at t=0 and the solution was incubated at 4° C. for the indicated time.
Starting product was idarubicin hydrochloride, 1% w/v aqueous solution, the analysis of which is shown in the data reported at t=0. The solution was incubated for the indicated time at 20° C. without additional chemicals. The results in table 5 show the expected rise in bis-anhydro content.
Starting product was idarubicin hydrochloride, 1% w/v aqueous solution, the analysis of which is shown in the data reported at t=0. The solution was incubated for the indicated time at 4° C. without the addition of additional chemicals.The results in table 6 show a rise in bis-anhydro content, even at 4° C.
Starting product was idarubicin hydrochloride, 1% w/v aqueous solution. At t=0, the pH of the solution was lowered by the addition of 1% mol of HCl with respect to idarubicin hydrochloride. The solution was incubated for the indicated time at 20° C.
Starting product was idarubicin hydrochloride, 1% w/v aqueous solution. At t=0, the pH of the solution was lowered by the addition of 1% mol of HCl with respect to idarubicin hydrochloride. The solution was incubated for the indicated time at 4° C.
Starting product was idarubicin hydrochloride, 1% w/v aqueous solution. At t=0, the pH of the solution was lowered to 3.6 by the addition of 1.3% mol of HCl with respect to idarubicin hydrochloride. The solution was then incubated for the indicated time at 20° C.
Starting product was idarubicin hydrochloride, 1% w/v aqueous solution. At t=0, the pH of the solution was lowered to 3.55 by the addition of 1.5% mol of HCl with respect to idarubicin hydrochloride. The solution was then incubated for the indicated time at 20° C.
Starting product was idarubicin hydrochloride, 1% w/v aqueous solution. At t=0, the pH of the solution was lowered to 3.50 by the addition of 1.7% mol of HCl with respect to idarubicin hydrochloride.
Starting product was idarubicin hydrochloride, 1% w/v aqueous solution. At t=0, the pH of the solution was lowered to 3.03 by the addition of 6.5% mol of HCl with respect to idarubicin hydrochloride.
Starting product was idarubicin hydrochloride, 1% w/v aqueous solution. At t=0, the pH of the solution was lowered to 2.18 by the addition of 48% mol of HCl with respect to idarubicin hydrochloride.

[1] = HCl 1% mol, pH 3.91, 4° C., 169 hr
[2] = HCl 1% mol, pH 3.91, 4° C., 407 hr
[3] = HCl 1% mol, pH 3.91, 20° C., 28 hr
[4] = HCl 1% mol, pH 3.91, 20° C., 168 hr
[5] = HCl 1% mol, pH 3.91, 20° C., 406 hr
[6] = HCl to pH = 2.18 (extra HCl = 48% mol), 4° C., 30 hr
[7] = HCl to pH = 2.18 (extra HCl = 48% mol), 4° C., 119 hr
[8] = HCl to pH = 2.18 (extra HCl = 48% mol), 20° C., 27 hr
[9] = HCl to pH = 2.18 (extra HCl = 48% mol), 20° C., 118 hr
[10] = HCl to pH = 3.03 (extra HCl = 6.5% mol), 20° C., 366 hr
[11] = HCl to pH = 3.50 (extra HCl = 1.7% mol), 20° C., 366 hr
[12] = HCl to pH = 3.55 (extra HCl = 1.5% mol), 20° C., 366 hr
[13] = HCl to pH = 3.60 (extra HCl = 1.3% mol), 20° C., 366 hr
[14] = NH3 1% mol, pH 6.56, 4° C., 34 hr
[15] = NH3 1% mol, pH 6.56, 4° C., 56 hr
[16] = NH3 1% mol, pH 6.56, 4° C., 149 hr
[17] = NH3 1% mol, pH 6.56, 20° C., 29 hr
[18] = NH3 1% mol, pH 6.56, 20° C., 54 hr
[19] = NH3 1% mol, pH 6.56, 20° C., 146 hr
[20] = NH3 3% mol, pH 6.69, 4° C., 28 hr
[21] = NH3 3% mol, pH 6.69, 4° C., 129 hr
[22] = NH3 3% mol, pH 6.69, 20° C., 25 hr
[23] = NH3 3% mol, pH 6.69, 20° C., 122 hr
[24] = dissolved as is, pH 5.66, 4° C., 31 hr
[25] = dissolved as is, pH 5.66, 4° C., 154 hr
[26] = dissolved as is, pH 5.66, 20° C., 26 hr
[27] = dissolved as is, pH 5.66, 20° C., 57 hr
[28] = dissolved as is, pH 5.66, 20° C., 148 hr

With `CC(=O)[C@]1(O)Cc2c(O)c3c(c(O)c2[C@@H](O[C@H]2C[C@@H](N)[C@H](O)C(C)O2)C1)C(=O)c1ccccc1C3=O.Cl` (stereo partly shown) [Idarubicin HCl, Idarubicin hydrochloride] the “% aglycone” value (HCl 1% mol, pH 3.91, 4° C., 33 hr) was 0.57%, the “% aglycone” value [1] was 0.58% and the “% bis-anhydro” value [1] was 0.06%. For the same compound, the “% aglycone” value [2] was 0.58%, the “% bis-anhydro” value [2] was 0.05% and the “% aglycone” value (HCl 1% mol, pH 3.91, 4° C., t = 0) was 0.59%. The “% aglycone” value [3] was 0.57%, the “% bis-anhydro” value [3] was 0.04% and the “% aglycone” value [4] was 0.58%. The “% bis-anhydro” value [4] was 0.09%, the “% aglycone” value [5] was 0.59% and the “% bis-anhydro” value [5] was 0.25%. The “% aglycone” value (HCl 1% mol, pH 3.91, 20° C., t = 0) was 0.59%, the “% aglycone” value [6] was 0.61% and the “% bis-anhydro” value [6] was 0.06%. For the same compound, the “% aglycone” value [7] was 0.63%, the “% bis-anhydro” value [7] was 0.06% and the “% aglycone” value (HCl to pH = 2.18 (extra HCl = 48% mol), 4° C., t = 0) was 0.59%. The “% aglycone” value [8] was 0.72%, the “% bis-anhydro” value [8] was 0.06% and the “% aglycone” value [9] was 1.03%. The “% bis-anhydro” value [9] was 0.06%, the “% aglycone” value (HCl to pH = 2.18 (extra HCl = 48% mol), 20° C., t = 0) was 0.59% and the “% aglycone” value (HCl to pH = 3.03 (extra HCl = 6.5% mol), 4° C., 29 hr) was 0.61%. The “% aglycone” value (HCl to pH = 3.03 (extra HCl = 6.5% mol), 4° C., 80 hr) was 0.61%, the “% aglycone” value (HCl to pH = 3.03 (extra HCl = 6.5% mol), 4° C., 364 hr) was 0.61% and the “% aglycone” value (HCl to pH = 3.03 (extra HCl = 6.5% mol), 4° C., t = 0) was 0.59%. For the same compound, the “% aglycone” value (HCl to pH = 3.03 (extra HCl = 6.5% mol), 20° C., 22 hr) was 0.62%, the “% aglycone” value (HCl to pH = 3.03 (extra HCl = 6.5% mol), 20° C., 76 hr) was 0.63% and the “% aglycone” value (HCl to pH = 3.03 (extra HCl = 6.5% mol), 20° C., 124 hr) was 0.65%. For the same compound, the “% aglycone” value [10] was 0.77%, the “% bis-anhydro” value [10] was 0.04% and the “% aglycone” value (HCl to pH = 3.03 (extra HCl = 6.5% mol), 20° C., t = 0) was 0.59%. The “% aglycone” value (HCl to pH = 3.50 (extra HCl = 1.7% mol), 20° C., 22 hr) was 0.59%, the “% aglycone” value (HCl to pH = 3.50 (extra HCl = 1.7% mol), 20° C., 76 hr) was 0.59% and the “% aglycone” value (HCl to pH = 3.50 (extra HCl = 1.7% mol), 20° C., 124 hr) was 0.60%. The “% aglycone” value [11] was 0.61%, the “% bis-anhydro” value [11] was 0.01% and the “% aglycone” value (HCl to pH = 3.50 (extra HCl = 1.7% mol), 20° C., t = 0) was 0.59%. For the same compound, the “% aglycone” value (HCl to pH = 3.55 (extra HCl = 1.5% mol), 20° C., 22 hr) was 0.59%, the “% aglycone” value (HCl to pH = 3.55 (extra HCl = 1.5% mol), 20° C., 76 hr) was 0.59% and the “% aglycone” value (HCl to pH = 3.55 (extra HCl = 1.5% mol), 20° C., 124 hr) was 0.60%. The “% aglycone” value [12] was 0.61%, the “% bis-anhydro” value [12] was 0.01% and the “% aglycone” value (HCl to pH = 3.55 (extra HCl = 1.5% mol), 20° C., t = 0) was 0.59%. The “% aglycone” value (HCl to pH = 3.60 (extra HCl = 1.3% mol), 20° C., 22 hr) was 0.59%, the “% aglycone” value (HCl to pH = 3.60 (extra HCl = 1.3% mol), 20° C., 76 hr) was 0.59% and the “% aglycone” value (HCl to pH = 3.60 (extra HCl = 1.3% mol), 20° C., 124 hr) was 0.60%. The “% aglycone” value [13] was 0.61%, the “% bis-anhydro” value [13] was 0.01% and the “% aglycone” value (HCl to pH = 3.60 (extra HCl = 1.3% mol), 20° C., t = 0) was 0.59%. The “% aglycone” value [14] was 0.58%, the “% bis-anhydro” value [14] was 0.50% and the “% aglycone” value [15] was 0.58%. For the same compound, the “% bis-anhydro” value [15] was 0.74%, the “% aglycone” value [16] was 0.58% and the “% bis-anhydro” value [16] was 1.33%. For the same compound, the “% aglycone” value (NH3 1% mol, pH 6.56, 4° C., t = 0) was 0.59%, the “% aglycone” value [17] was 0.58% and the “% bis-anhydro” value [17] was 2.37%. For the same compound, the “% aglycone” value [18] was 0.58%, the “% bis-anhydro” value [18] was 3.56% and the “% aglycone” value [19] was 0.59%. For the same compound, the “% bis-anhydro” value [19] was 8.03%, the “% aglycone” value (NH3 1% mol, pH 6.56, 20° C., t = 0) was 0.59% and the “% aglycone” value [20] was 0.59%. The “% bis-anhydro” value [20] was 0.63%, the “% aglycone” value [21] was 0.59% and the “% bis-anhydro” value [21] was 1.87%. The “% aglycone” value (NH3 3% mol, pH 6.69, 4° C., t = 0) was 0.59%, the “% aglycone” value [22] was 0.60% and the “% bis-anhydro” value [22] was 3.00%. For the same compound, the “% aglycone” value [23] was 0.61%, the “% bis-anhydro” value [23] was 13.46% and the “% aglycone” value (NH3 3% mol, pH 6.69, 20° C., t = 0) was 0.59%. For the same compound, the “% aglycone” value [24] was 0.57%, the “% bis-anhydro” value [24] was 0.11% and the “% aglycone” value [25] was 0.57%. For the same compound, the “% bis-anhydro” value [25] was 0.30%, the “% aglycone” value (dissolved as is, pH 5.66, 4° C., t = 0) was 0.59% and the “% aglycone” value [26] was 0.57%. The “% bis-anhydro” value [26] was 0.41%, the “% aglycone” value [27] was 0.58% and the “% bis-anhydro” value [27] was 0.84%. The “% aglycone” value [28] was 0.58%, the “% bis-anhydro” value [28] was 1.20% and the “% aglycone” value (dissolved as is, pH 5.66, 20° C., t = 0) was 0.59%. For the same compound, the “pH at which found to be most stable” value (lowest amount of aglycon and bis-anhydro impurities, constant over time even at 20° C.) was 3.5.
